Values after ≈ are worked out from the molar mass of the structure shown. Values belong to the compound of their own block, whether it stands above or below them.
Columns and labels:
[1] = molecular target: T1, Muscarinic acetylcholine receptor M1 (Homo sapiens) (UniProt P11229); assay: Positive allosteric modulation of human muscarinic acetylcholine receptor M1 expressed in CHO cells assessed as increase in acetylcholine-induced calcium mobilization pretreated for 4 mins followed by acetylcholine addition and measured after 4 mins by Fluo-4-AM dye based FLIPR assay; assay type: functional, cell-based
T1 sequence (whole entry): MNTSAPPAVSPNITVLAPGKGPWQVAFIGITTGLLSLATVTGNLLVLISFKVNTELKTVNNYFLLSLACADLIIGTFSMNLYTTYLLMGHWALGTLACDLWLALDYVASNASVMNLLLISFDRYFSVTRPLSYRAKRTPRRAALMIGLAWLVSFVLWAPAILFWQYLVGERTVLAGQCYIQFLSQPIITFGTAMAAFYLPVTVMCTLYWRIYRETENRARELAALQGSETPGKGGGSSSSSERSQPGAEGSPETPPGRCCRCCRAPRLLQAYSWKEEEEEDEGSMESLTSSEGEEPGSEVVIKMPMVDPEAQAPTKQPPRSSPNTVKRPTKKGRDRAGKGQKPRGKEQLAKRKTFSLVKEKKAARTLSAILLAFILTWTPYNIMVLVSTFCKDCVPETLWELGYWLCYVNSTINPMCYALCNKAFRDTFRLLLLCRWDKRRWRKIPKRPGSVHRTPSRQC

[2] = Ratio of total drug level in cerebrospinal fluid to unbound plasma concentration in Sprague-Dawley rat at 10 mg/kg, po; assay type: ADME, organism-based, CSF/Plasma; settings: in vivo
[3] = Lipophilicity, log D of the compound by HPLC method; assay type: physicochemical
[4] = Kinetic solubility of the compound at pH 2; assay type: physicochemical; settings: buffer, read-out: Kinetic_solubility
[5] = Kinetic solubility of the compound at pH 7; assay type: physicochemical; settings: buffer, read-out: Kinetic_solubility
[6] = molecular target: Voltage-gated inwardly rectifying potassium channel KCNH2 (Homo sapiens, UniProt Q12809)
Voltage-gated inwardly rectifying potassium channel KCNH2, sequence (Q12809 whole entry): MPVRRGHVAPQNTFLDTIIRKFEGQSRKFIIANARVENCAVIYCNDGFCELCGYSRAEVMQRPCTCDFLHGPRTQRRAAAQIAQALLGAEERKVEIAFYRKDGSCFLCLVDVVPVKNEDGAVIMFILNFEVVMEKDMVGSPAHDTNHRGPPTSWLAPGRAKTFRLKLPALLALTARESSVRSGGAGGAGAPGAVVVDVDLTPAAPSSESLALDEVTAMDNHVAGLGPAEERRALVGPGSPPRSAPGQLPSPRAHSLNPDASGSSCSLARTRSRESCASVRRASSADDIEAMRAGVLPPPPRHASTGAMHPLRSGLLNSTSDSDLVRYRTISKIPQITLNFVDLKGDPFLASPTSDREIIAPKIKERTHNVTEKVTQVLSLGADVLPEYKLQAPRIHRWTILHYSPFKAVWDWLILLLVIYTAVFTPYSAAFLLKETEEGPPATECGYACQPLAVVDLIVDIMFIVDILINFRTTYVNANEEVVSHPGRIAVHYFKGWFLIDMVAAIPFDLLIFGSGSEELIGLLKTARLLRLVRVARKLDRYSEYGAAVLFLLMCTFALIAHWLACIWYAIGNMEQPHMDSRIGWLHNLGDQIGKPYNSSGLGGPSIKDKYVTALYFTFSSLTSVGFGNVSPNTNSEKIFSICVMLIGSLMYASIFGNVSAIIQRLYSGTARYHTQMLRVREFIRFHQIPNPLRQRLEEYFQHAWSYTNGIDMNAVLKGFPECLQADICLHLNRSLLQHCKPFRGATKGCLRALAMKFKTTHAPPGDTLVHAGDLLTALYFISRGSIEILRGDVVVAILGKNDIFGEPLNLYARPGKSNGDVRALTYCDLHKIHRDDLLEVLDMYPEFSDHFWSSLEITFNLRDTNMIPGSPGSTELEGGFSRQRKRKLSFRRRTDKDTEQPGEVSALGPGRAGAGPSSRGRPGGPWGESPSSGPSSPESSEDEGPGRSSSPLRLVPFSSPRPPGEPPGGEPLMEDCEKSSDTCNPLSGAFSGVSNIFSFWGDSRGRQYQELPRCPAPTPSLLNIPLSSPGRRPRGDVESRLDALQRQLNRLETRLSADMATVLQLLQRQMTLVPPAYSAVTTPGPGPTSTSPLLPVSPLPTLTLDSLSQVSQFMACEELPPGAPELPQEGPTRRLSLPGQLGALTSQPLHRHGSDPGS

MDR1 (P-gp, ABCB1) [7] = molecular target: T2, MDR1 (P-gp, ABCB1) (Homo sapiens, UniProt P08183); assay: Substrate activity at MDR1 (unknown origin) assessed as efflux ratio of permeability from basolateral to apical side over apical to basolateral side; assay type: ADME; settings: not told
T2 sequence (P08183 whole entry): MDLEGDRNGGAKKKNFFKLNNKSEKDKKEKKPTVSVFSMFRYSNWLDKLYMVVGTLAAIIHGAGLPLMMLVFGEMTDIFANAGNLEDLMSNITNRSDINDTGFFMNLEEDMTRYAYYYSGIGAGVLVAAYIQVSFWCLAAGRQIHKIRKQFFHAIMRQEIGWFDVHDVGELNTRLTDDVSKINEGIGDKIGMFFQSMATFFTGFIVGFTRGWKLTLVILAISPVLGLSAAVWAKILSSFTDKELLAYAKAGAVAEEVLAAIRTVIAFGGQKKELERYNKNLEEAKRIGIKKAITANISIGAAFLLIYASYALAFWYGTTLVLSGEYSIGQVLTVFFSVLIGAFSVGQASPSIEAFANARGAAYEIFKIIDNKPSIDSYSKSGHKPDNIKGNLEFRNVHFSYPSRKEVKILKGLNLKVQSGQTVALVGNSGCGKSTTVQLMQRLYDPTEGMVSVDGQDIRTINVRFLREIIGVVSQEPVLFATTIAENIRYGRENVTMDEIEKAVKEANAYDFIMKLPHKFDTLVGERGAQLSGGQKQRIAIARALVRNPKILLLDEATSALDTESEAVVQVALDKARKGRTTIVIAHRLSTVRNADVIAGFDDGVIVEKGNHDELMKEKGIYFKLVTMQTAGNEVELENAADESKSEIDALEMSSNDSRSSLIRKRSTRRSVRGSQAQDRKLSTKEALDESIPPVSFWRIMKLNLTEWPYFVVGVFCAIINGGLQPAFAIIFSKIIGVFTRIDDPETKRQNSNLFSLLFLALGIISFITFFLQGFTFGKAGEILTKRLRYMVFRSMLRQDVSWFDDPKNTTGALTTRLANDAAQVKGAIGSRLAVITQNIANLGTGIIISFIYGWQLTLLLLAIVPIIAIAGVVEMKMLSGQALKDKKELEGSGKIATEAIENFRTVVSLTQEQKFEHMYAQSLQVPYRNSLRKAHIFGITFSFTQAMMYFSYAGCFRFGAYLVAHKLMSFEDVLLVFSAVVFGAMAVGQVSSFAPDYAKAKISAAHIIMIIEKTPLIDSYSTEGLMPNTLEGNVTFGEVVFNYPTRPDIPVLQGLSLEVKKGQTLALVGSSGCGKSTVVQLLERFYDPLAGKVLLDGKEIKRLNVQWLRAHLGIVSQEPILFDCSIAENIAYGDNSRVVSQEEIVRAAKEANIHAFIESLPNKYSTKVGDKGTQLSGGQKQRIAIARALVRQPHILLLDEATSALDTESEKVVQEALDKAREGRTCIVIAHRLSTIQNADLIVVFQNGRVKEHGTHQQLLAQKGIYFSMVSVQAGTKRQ

MDR1 (P-gp, ABCB1) [8] = molecular target: T2, MDR1 (P-gp, ABCB1); assay: Substrate activity at MDR1 (unknown origin) assessed as apparent permeability; assay type: ADME; settings: not told
[9] = Intrinsic clearance in human microsomes; assay type: ADME, Microsome
[10] = Oral bioavailability in Sprague-Dawley rat at 10 mg/kg; assay type: ADME, organism-based; settings: in vivo
[11] = Terminal half life in Sprague-Dawley rat at 10 mg/kg, po or 2 mg/kg, iv; assay type: ADME, organism-based; settings: in vivo, read-out: beta t1/2 (converted)
[12] = Clearance in Sprague-Dawley rat at 10 mg/kg, po or 2 mg/kg, iv; assay type: ADME, organism-based; settings: in vivo
[13] = Volume of distribution at steady state in Sprague-Dawley rat at 10 mg/kg, po or 2 mg/kg, iv; assay type: ADME, organism-based; settings: in vivo, read-out: Vdss
[14] = Oral bioavailability in Mongrel dog at 3 mg/kg; assay type: ADME, organism-based, Canis lupus familiaris; settings: in vivo
[15] = Terminal half life in Mongrel dog at 3 mg/kg, po or 1 mg/kg, iv; assay type: ADME, organism-based, Canis lupus familiaris; settings: in vivo, read-out: beta t1/2 (converted)
[16] = Clearance in Mongrel dog at 3 mg/kg, po or 1 mg/kg, iv; assay type: ADME, organism-based, Canis lupus familiaris; settings: in vivo
[17] = Volume of distribution at steady state in Mongrel dog at 3 mg/kg, po or 1 mg/kg, iv; assay type: ADME, organism-based, Canis lupus familiaris; settings: in vivo, read-out: Vdss
[18] = Oral bioavailability in rhesus monkey at 1 mg/kg; assay type: ADME, organism-based, Macaca mulatta; settings: in vivo
[19] = Terminal half life in rhesus monkey at 1 mg/kg, po or 0.5 mg/kg, iv; assay type: ADME, organism-based, Macaca mulatta; settings: in vivo, read-out: beta t1/2 (converted)
[20] = Clearance in rhesus monkey at 1 mg/kg, po or 0.5 mg/kg, iv; assay type: ADME, organism-based, Macaca mulatta; settings: in vivo
[21] = Volume of distribution at steady state in rhesus monkey at 1 mg/kg, po or 0.5 mg/kg, iv; assay type: ADME, organism-based, Macaca mulatta; settings: in vivo, read-out: Vdss
[22] = Equilibrium solubility of the compound at pH <4; assay type: physicochemical
[23] = Equilibrium solubility of the compound at pH 8 to 10; assay type: physicochemical; settings: buffer
[24] = molecular target: T3, Polyunsaturated fatty acid 5-lipoxygenase (Homo sapiens, UniProt P09917); assay: Inhibition of recombinant human 5-LOX using arachidonic acid as substrate measured after 5 mins by fluorescence assay
T3 sequence (P09917 whole entry): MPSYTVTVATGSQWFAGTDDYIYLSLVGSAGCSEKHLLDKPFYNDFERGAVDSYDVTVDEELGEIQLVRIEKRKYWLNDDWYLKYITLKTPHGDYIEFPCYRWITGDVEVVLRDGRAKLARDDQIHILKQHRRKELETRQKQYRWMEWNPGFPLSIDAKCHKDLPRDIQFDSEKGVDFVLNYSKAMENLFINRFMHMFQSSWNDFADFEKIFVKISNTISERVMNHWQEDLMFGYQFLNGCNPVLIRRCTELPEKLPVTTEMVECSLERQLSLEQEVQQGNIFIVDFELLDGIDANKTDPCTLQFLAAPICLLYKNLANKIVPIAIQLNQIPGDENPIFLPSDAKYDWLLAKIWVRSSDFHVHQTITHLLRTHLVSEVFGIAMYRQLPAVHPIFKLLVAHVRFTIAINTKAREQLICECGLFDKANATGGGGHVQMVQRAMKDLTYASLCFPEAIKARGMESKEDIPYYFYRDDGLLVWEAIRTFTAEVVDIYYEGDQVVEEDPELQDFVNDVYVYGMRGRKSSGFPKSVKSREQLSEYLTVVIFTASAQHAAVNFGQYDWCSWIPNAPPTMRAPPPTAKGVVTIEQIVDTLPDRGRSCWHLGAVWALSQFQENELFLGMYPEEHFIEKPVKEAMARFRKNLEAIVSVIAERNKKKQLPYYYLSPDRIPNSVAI

[25] = Inhibition of PDE4 (unknown origin); parameters: species or system Homo sapiens
Cytochrome P450 2C9 = Cytochrome P450 2C9 (Homo sapiens, UniProt P11712); assay: Competitive reversible inhibition of CYP2C9 (unknown origin); assay type: ADME
Cytochrome P450 2C9, sequence (P11712 whole entry): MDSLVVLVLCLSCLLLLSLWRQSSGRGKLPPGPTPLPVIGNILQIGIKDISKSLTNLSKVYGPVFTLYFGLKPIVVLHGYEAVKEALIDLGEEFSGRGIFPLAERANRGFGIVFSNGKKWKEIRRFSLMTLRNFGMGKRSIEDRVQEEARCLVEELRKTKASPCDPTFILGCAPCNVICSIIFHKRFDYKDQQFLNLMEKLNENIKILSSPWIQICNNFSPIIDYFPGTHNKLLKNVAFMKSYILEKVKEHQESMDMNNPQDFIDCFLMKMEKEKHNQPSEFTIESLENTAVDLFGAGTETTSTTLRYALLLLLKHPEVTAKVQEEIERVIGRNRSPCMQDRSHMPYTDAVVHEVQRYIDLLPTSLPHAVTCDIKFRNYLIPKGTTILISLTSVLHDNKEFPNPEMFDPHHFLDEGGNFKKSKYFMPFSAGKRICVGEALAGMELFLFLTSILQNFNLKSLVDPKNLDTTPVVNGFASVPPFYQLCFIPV

Hepatocyte = assay: Induction of CYP3A4 mRNA expression in human hepatocytes at 0.1 to 10 uM; assay type: ADME, cell-based
Cytochrome P450 3A4 = Cytochrome P450 3A4 (Homo sapiens, UniProt P08684); assay: Induction of CYP3A4 activity in human hepatocytes at 0.1 to 10 uM; assay type: ADME, cell-based
Cytochrome P450 3A4, sequence (P08684 whole entry): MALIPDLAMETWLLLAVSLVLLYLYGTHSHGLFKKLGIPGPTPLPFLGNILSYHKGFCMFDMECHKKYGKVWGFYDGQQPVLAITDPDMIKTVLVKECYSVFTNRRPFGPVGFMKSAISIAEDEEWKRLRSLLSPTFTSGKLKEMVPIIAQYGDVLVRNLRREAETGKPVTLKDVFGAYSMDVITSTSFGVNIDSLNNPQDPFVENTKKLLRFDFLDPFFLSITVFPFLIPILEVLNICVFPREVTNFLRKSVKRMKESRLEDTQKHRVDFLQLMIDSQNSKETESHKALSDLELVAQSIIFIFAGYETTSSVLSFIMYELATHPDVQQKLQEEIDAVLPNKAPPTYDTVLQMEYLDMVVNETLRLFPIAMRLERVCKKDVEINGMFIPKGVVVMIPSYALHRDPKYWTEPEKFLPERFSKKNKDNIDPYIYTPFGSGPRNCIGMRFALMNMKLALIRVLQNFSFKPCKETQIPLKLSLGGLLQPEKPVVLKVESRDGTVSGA

[26] = Equilibrium solubility of the compound in simulated gastric fluid using crystalline compound; assay type: physicochemical
[27] = Equilibrium solubility of the compound in fasted state simulated intestinal fluid using crystalline compound; assay type: physicochemical

- IP [1]: 0.018 µM
- Ratio [2]: 1
- logD [3]: 3
- solubility kinetic [4]: 71 µM (≈ 29.5 µg/mL)
- solubility kinetic [5]: < 3 µM
Compound: COc1ccc(Cc2cc3c(=O)n([C@H]4CCCC[C@@H]4O)cnc3c3ccccc23)cn1
- IC50 [6]: 6.4 µM

- IP [1]: 57 µM
Compound: COc1ccc(Cn2cc3c(=O)[nH]nc-3c3ccccc32)cc1

- IP [1]: 0.41 µM
Compound: COc1ccc(Cn2cc3c(=O)n(-c4ccccc4F)nc-3c3ccccc32)cc1

- IP [1]: 3.3 µM
Compound: COc1ccc(Cc2cc3c(=O)n(-c4ccccc4F)ccc3c3ccccc23)cc1

- IP [1]: 0.22 µM
Compound: COc1ccc(Cc2cc3c(=O)n([C@H]4CCCC[C@@H]4O)cnc3c3ccccc23)cc1

- IP [1]: 8.9 µM
Compound: COc1ccc(Cn2cc3c(=O)n(-c4ccccc4)nc-3c3ccccc32)cc1

- IP [1]: 0.82 µM
Compound: COc1ccc(Cc2cc3c(=O)n(-c4ccccc4F)cnc3c3ccccc23)cc1

- IP [1]: 0.052 µM
Compound: COc1ccc(Cc2cc3c(c4ccccc24)CN([C@H]2CCCC[C@@H]2O)C3=O)cc1

- IP [1]: 0.021 µM
- logD [3]: 3.2
- solubility kinetic [4]: 102 µM (≈ 44 µg/mL)
- solubility kinetic [5]: < 2 µM
Compound: CSc1ccc(Cc2cc3c(=O)n([C@H]4CCCC[C@@H]4O)cnc3c3ccccc23)cn1
- IC50 [6]: 7.5 µM

- IP [1]: 0.013 to 0.015 µM
- Ratio [2]: 0.9
- logD [3]: 3.1
- solubility kinetic [4]: < 2 µM
- solubility kinetic [5]: < 2 µM
- efflux ratio (MDR1 (P-gp, ABCB1) [7]): 1.1
Compound: O=c1c2cc(Cc3ccc(Cl)nc3)c3ccccc3c2ncn1[C@H]1CCCC[C@@H]1O
- IC50 [6]: 13 µM

- IP [1]: > 100 µM
Compound: COc1ccc(Cn2cc3c(=O)onc-3c3ccccc32)cc1

- IP [1]: 0.042 µM
- Ratio [2]: 0.5
- logD [3]: 2.4
- solubility kinetic [4]: 181 µM (≈ 69.8 µg/mL)
- solubility kinetic [5]: 34 µM (≈ 13.1 µg/mL)
Compound: O=c1c2cc(Cc3cccnc3)c3ccccc3c2ncn1[C@H]1CCCC[C@@H]1O (relative stereo)
- IC50 [6]: 12 µM

Compound: Cc1ccc(Cc2cc3c(=O)n([C@H]4CCCC[C@@H]4O)cnc3c3ccccc23)cn1 [MK-7622]
- logD [3]: 2.6
- solubility kinetic [4]: 191 µM (≈ 76.3 µg/mL)
- solubility kinetic [5]: 17 µM (≈ 6.79 µg/mL)
- Papp (MDR1 (P-gp, ABCB1) [8]): 33 ×10⁻⁶ cm/s
- CLint scaled [9]: 15 mL/min/kg
- bioavailability [10]: 56%
- half-life [11]: 1.3 h
- clearance [12]: 18.9 mL/min/kg
- Vd [13]: 0.94 L/kg
- bioavailability [14]: 76%
- half-life [15]: 8.7 h
- clearance [16]: 4.5 mL/min/kg
- Vd [17]: 2.4 L/kg
- bioavailability [18]: 40%
- half-life [19]: 1.8 h
- clearance [20]: 7.6 mL/min/kg
- Vd [21]: 1.2 L/kg
- solubility thermodynamic [22]: 6000 to 9000 µg/mL (≈ 15 to 22.5 mM)
- solubility thermodynamic [23]: < 1 µg/mL
- IC50 [24]: 4.4 µM
- IC50 [25]: 2.1 µM
- IC50 (Cytochrome P450 2C9): 13.3 µM
- Activity (Hepatocyte): Not Active
- Activity (Cytochrome P450 3A4): Not Active

- IP [1]: 0.66 µM
Compound: COc1ccc(Cn2cc(C(=O)O)c(=O)c3ccccc32)cc1

Compound: Cc1ccc(Cc2cc3c(=O)n([C@H]4CCCC[C@@H]4O)cnc3c3ccccc23)cn1.O=C(O)/C=C/C(=O)O
- solubility thermodynamic [26]: 2300 µg/mL
- solubility thermodynamic [27]: 40 µg/mL

— ChEMBL document CHEMBL4196115 (ACS Med Chem Lett, 2018)
